Data as given in patent publication US9708314B2, “Heterocyclic amide compound” (NISSAN CHEMICAL INDUSTRIES, LTD., priority 2013, dated 2017).

Assays:
Assay type in all cases: in vivo
[1] = tested on: Echinochloa crus-galli var. crus-galli; experiment: Test Example 3: herbicidal effect by application to foliage (Wagner pot, water depth 0.1-0.5 cm); conditions: Nineteenth Table; application to foliage; application herbicide amount 320 g/ha
How it was run: (§1)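 Three weeks after spraying, each species was graded 0–5 for herbicidal ratio, 5 being 90% or more. Application: water-diluted emulsifiable concentrate at a fixed g/ha to foliage of 14-day-old greenhouse (25–30 °C) plants in alluvial soil.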

Leptochloa chinensis = experiment: as above; conditions: Nineteenth Table; application to foliage; application herbicide amount 320 g/ha
How it was run: as §1

Cyperus difformis = experiment: as above; conditions: Nineteenth Table; application to foliage; application herbicide amount 320 g/ha
How it was run: as §1

[2] = tested on: directly sowed Oryza sativa; experiment: Test Example 4: effect on crop by application to foliage (diluvial soil, plastic box); conditions: application to foliage, 320 g/ha
How it was run: (§2)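 Scores run from 0 (herbicidal ratio ≤5%) to 5 (≥90%, almost fully withered) and were assessed three weeks after foliar spraying. Seedlings had been raised for 14 days at 25-30° C in sterilized diluvial soil before treatment, with the emulsion diluted in water to the stated g/ha dose.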

Triticum aestivum = experiment: as above; conditions: application to foliage, 320 g/ha
How it was run: as §2

Glycine max = experiment: as above; conditions: application to foliage, 320 g/ha
How it was run: as §2

Brassica campestris L. = experiment: as above; conditions: application to foliage, 320 g/ha
How it was run: as §2

[3] = tested on: Beta vulgaris ssp. vulgaris; experiment: as above; conditions: application to foliage, 320 g/ha
How it was run: as §2

Setaria viridis = experiment: Test Example 4: herbicidal effect by application to foliage (diluvial soil, plastic box); conditions: application to foliage, 320 g/ha
How it was run: as §2

Chenopodium album = experiment: as above; conditions: application to foliage, 320 g/ha
How it was run: as §2

Veronica persica = experiment: as above; conditions: application to foliage, 320 g/ha
How it was run: as §2

Lolium multiflorum Lam. = experiment: as above; conditions: application to foliage, 320 g/ha
How it was run: as §2

[4] = tested on: Echinochloa crus-galli var. crus-galli; experiment: as above; conditions: application to foliage, 320 g/ha
How it was run: as §2

Apera spica-venti. = experiment: as above; conditions: application to foliage, 320 g/ha
How it was run: as §2

Galium spurium = experiment: as above; conditions: application to foliage, 320 g/ha
How it was run: as §2

Stellaria media = experiment: as above; conditions: application to foliage, 320 g/ha
How it was run: as §2

Abutilon theophrasti = experiment: as above; conditions: application to foliage, 320 g/ha
How it was run: as §2

Digitaria ciliaris = experiment: as above; conditions: application to foliage, 320 g/ha
How it was run: as §2

Avena fatua = experiment: as above; conditions: application to foliage, 320 g/ha
How it was run: as §2

Amaranthus retroflexus = experiment: as above; conditions: application to foliage, 320 g/ha
How it was run: as §2

Alopecurus myosuroides = experiment: as above; conditions: application to foliage, 320 g/ha
How it was run: as §2

## Cn1nnnc1NC(=O)c1ccc(C(F)(F)F)n2c(SCC3CCCO3)nnc12 (stereo not drawn) [2-085]
[1]
  H (herbicidal effect grade): 5 (Herbicidal ratio of 90% or more (almost completely withered))
Leptochloa chinensis
  D (herbicidal effect grade): 5 (Herbicidal ratio of 90% or more (almost completely withered))
Cyperus difformis
  E (herbicidal effect grade): 4 (Herbicidal ratio of 70% or more and less than 90%)
[2]
  effect on crop, d (directly sowed Oryza sativa): 5 (Herbicidal ratio of 90% or more (almost completely withered))
Triticum aestivum
  effect on crop, e (Triticum aestivum): 3 (Herbicidal ratio of 40% or more and less than 70%)
Glycine max
  effect on crop, c (Glycine max): 2 (Herbicidal ratio of 20% or more and less than 40%)
Brassica campestris L.
  effect on crop, g (Brassica campestris L.): 4 (Herbicidal ratio of 70% or more and less than 90%)
[3]
  effect on crop, f (Beta vulgaris ssp. vulgaris): 5 (Herbicidal ratio of 90% or more (almost completely withered))
Setaria viridis
  herbicidal effect, G (Setaria viridis): 5 (Herbicidal ratio of 90% or more (almost completely withered))
Chenopodium album
  herbicidal effect, O (Chenopodium album): 5 (Herbicidal ratio of 90% or more (almost completely withered))
Veronica persica
  herbicidal effect, R (Veronica persica): 4 (Herbicidal ratio of 70% or more and less than 90%)
Lolium multiflorum Lam.
  herbicidal effect, K (Lolium multiflorum Lam.): 3 (Herbicidal ratio of 40% or more and less than 70%)
[4]
  herbicidal effect, H (Echinochloa crus-galli var. crus-galli): 5 (Herbicidal ratio of 90% or more (almost completely withered))
Apera spica-venti.
  herbicidal effect, L (Apera spica-venti.): 4 (Herbicidal ratio of 70% or more and less than 90%)
Galium spurium
  herbicidal effect, Q (Galium spurium): 4 (Herbicidal ratio of 70% or more and less than 90%)
Stellaria media
  herbicidal effect, P (Stellaria media): 5 (Herbicidal ratio of 90% or more (almost completely withered))
Abutilon theophrasti
  herbicidal effect, M (Abutilon theophrasti): 5 (Herbicidal ratio of 90% or more (almost completely withered))
Digitaria ciliaris
  herbicidal effect, F (Digitaria ciliaris): 5 (Herbicidal ratio of 90% or more (almost completely withered))
Avena fatua
  herbicidal effect, I (Avena fatua): 4 (Herbicidal ratio of 70% or more and less than 90%)
Amaranthus retroflexus
  herbicidal effect, N (Amaranthus retroflexus): 5 (Herbicidal ratio of 90% or more (almost completely withered))
Alopecurus myosuroides
  herbicidal effect, J (Alopecurus myosuroides): 3 (Herbicidal ratio of 40% or more and less than 70%)

## Cn1nnnc1NC(=O)c1ccc(C(F)(F)F)n2c(NCC(F)(F)F)nnc12 [2-081]
[1]
  H (herbicidal effect grade): 5 (Herbicidal ratio of 90% or more (almost completely withered))
Leptochloa chinensis
  D (herbicidal effect grade): 5 (Herbicidal ratio of 90% or more (almost completely withered))
Cyperus difformis
  E (herbicidal effect grade): 5 (Herbicidal ratio of 90% or more (almost completely withered))
[2]
  effect on crop, d (directly sowed Oryza sativa): 3 (Herbicidal ratio of 40% or more and less than 70%)
Triticum aestivum
  effect on crop, e (Triticum aestivum): 2 (Herbicidal ratio of 20% or more and less than 40%)
Glycine max
  effect on crop, c (Glycine max): 0 (Herbicidal ratio of 5% or less (almost no effect))
Brassica campestris L.
  effect on crop, g (Brassica campestris L.): 4 (Herbicidal ratio of 70% or more and less than 90%)
[3]
  effect on crop, f (Beta vulgaris ssp. vulgaris): 5 (Herbicidal ratio of 90% or more (almost completely withered))
Setaria viridis
  herbicidal effect, G (Setaria viridis): 3 (Herbicidal ratio of 40% or more and less than 70%)
Chenopodium album
  herbicidal effect, O (Chenopodium album): 5 (Herbicidal ratio of 90% or more (almost completely withered))
Veronica persica
  herbicidal effect, R (Veronica persica): 4 (Herbicidal ratio of 70% or more and less than 90%)
Lolium multiflorum Lam.
  herbicidal effect, K (Lolium multiflorum Lam.): 1 (Herbicidal ratio of 5% or more and less than 20%)
[4]
  herbicidal effect, H (Echinochloa crus-galli var. crus-galli): 5 (Herbicidal ratio of 90% or more (almost completely withered))
Apera spica-venti.
  herbicidal effect, L (Apera spica-venti.): 1 (Herbicidal ratio of 5% or more and less than 20%)
Galium spurium
  herbicidal effect, Q (Galium spurium): 3 (Herbicidal ratio of 40% or more and less than 70%)
Stellaria media
  herbicidal effect, P (Stellaria media): 5 (Herbicidal ratio of 90% or more (almost completely withered))
Abutilon theophrasti
  herbicidal effect, M (Abutilon theophrasti): 4 (Herbicidal ratio of 70% or more and less than 90%)
Digitaria ciliaris
  herbicidal effect, F (Digitaria ciliaris): 4 (Herbicidal ratio of 70% or more and less than 90%)
Avena fatua
  herbicidal effect, I (Avena fatua): 3 (Herbicidal ratio of 40% or more and less than 70%)
Amaranthus retroflexus
  herbicidal effect, N (Amaranthus retroflexus): 5 (Herbicidal ratio of 90% or more (almost completely withered))
Alopecurus myosuroides
  herbicidal effect, J (Alopecurus myosuroides): 1 (Herbicidal ratio of 5% or more and less than 20%)

## CN(c1nnc2c(C(=O)Nc3nnnn3C)ccc(C(F)(F)F)n12)C1CCCCC1 [2-083]
[1]
  H (herbicidal effect grade): 4 (Herbicidal ratio of 70% or more and less than 90%)
Leptochloa chinensis
  D (herbicidal effect grade): 4 (Herbicidal ratio of 70% or more and less than 90%)
Cyperus difformis
  E (herbicidal effect grade): 5 (Herbicidal ratio of 90% or more (almost completely withered))
[2]
  effect on crop, d (directly sowed Oryza sativa): 4 (Herbicidal ratio of 70% or more and less than 90%)
Triticum aestivum
  effect on crop, e (Triticum aestivum): 0 (Herbicidal ratio of 5% or less (almost no effect))
Glycine max
  effect on crop, c (Glycine max): 0 (Herbicidal ratio of 5% or less (almost no effect))
Brassica campestris L.
  effect on crop, g (Brassica campestris L.): 1 (Herbicidal ratio of 5% or more and less than 20%)
[3]
  effect on crop, f (Beta vulgaris ssp. vulgaris): 5 (Herbicidal ratio of 90% or more (almost completely withered))
Setaria viridis
  herbicidal effect, G (Setaria viridis): 4 (Herbicidal ratio of 70% or more and less than 90%)
Chenopodium album
  herbicidal effect, O (Chenopodium album): 5 (Herbicidal ratio of 90% or more (almost completely withered))
Veronica persica
  herbicidal effect, R (Veronica persica): 4 (Herbicidal ratio of 70% or more and less than 90%)
Lolium multiflorum Lam.
  herbicidal effect, K (Lolium multiflorum Lam.): 1 (Herbicidal ratio of 5% or more and less than 20%)
[4]
  herbicidal effect, H (Echinochloa crus-galli var. crus-galli): 5 (Herbicidal ratio of 90% or more (almost completely withered))
Apera spica-venti.
  herbicidal effect, L (Apera spica-venti.): 1 (Herbicidal ratio of 5% or more and less than 20%)
Galium spurium
  herbicidal effect, Q (Galium spurium): 3 (Herbicidal ratio of 40% or more and less than 70%)
Stellaria media
  herbicidal effect, P (Stellaria media): 4 (Herbicidal ratio of 70% or more and less than 90%)
Abutilon theophrasti
  herbicidal effect, M (Abutilon theophrasti): 5 (Herbicidal ratio of 90% or more (almost completely withered))
Digitaria ciliaris
  herbicidal effect, F (Digitaria ciliaris): 5 (Herbicidal ratio of 90% or more (almost completely withered))
Avena fatua
  herbicidal effect, I (Avena fatua): 2 (Herbicidal ratio of 20% or more and less than 40%)
Amaranthus retroflexus
  herbicidal effect, N (Amaranthus retroflexus): 5 (Herbicidal ratio of 90% or more (almost completely withered))
Alopecurus myosuroides
  herbicidal effect, J (Alopecurus myosuroides): 1 (Herbicidal ratio of 5% or more and less than 20%)
